Results published in patent US7666901B2, “Analogs of 17-hydroxywortmannin as PI3K inhibitors” (Wyeth, priority 2004, dated 2010).
Values after ≈ are worked out from the molar mass of the structure shown.

Experiments:
[1] = test system: MDA468 (human breast cancer cell); assay: Cell proliferation (MTS) assay, MDA468; type: cell-based; conditions: Homo sapiens, 72 h, Table 1; three days treatment
Experimental: (§1) Results of cell proliferation assays for exemplary compounds are shown below in Tables 1 and 2. Cell lines LNCaP (human prostate carcinoma), MDA468 (human breast cancer cell), MDA435 (human breast adenocarcinoma), and DU145 (human prostate carcinoma[…]) were purchased from American Type Culture Collection (ATCC) (Rockville, Md.). Cells were cultured in RPMI Medium 1640 containing 10% fetal bovine serum (FBS) in a 37° C. incubator containing 5% CO2. All cell culture reagents were purchased from Gibco-BRL (Grand Island, N.Y.). Cells were plated in 96-well culture plates at about 3000 cells per well. One day following plating, compounds or vehicle controls (buffer only) were added to cells. Proliferation assays were performed three days post initiation of treatment.
(§2) For a non-radioactive cell proliferation assay, viable cell densities are determined by measuring metabolic conversion (by viable cells) of the dye MTS tatrazolium dye, a cell proliferation assay known by one of skill in the art (MTS assay), a previously established cell proliferation assay. The assay is performed using an assay kit (Promega Corp., Madison, Wis.). The assay plates are incubated for 1-2 hours, and the results are read in a 96-well format plate reader by measuring absorbance at 490 nm. Effect of each compound is calculated as a percentage of control cell growth obtained from vehicle-treated cells grown in the same plate.

[2] = test system: MDA435 (human breast adenocarcinoma); assay: Cell proliferation (MTS) assay, MDA435; type: cell-based; conditions: Homo sapiens, MDA435, 72 h, Table 1; three days treatment
Experimental: as §1, §2

[3] = test system: LNCaP (human prostate carcinoma); assay: Cell proliferation (MTS) assay, LNCaP; type: cell-based; conditions: Homo sapiens, LNCaP, 72 h, Table 1; three days treatment
Experimental: as §1, §2

[4] = test system: DU145 (human prostate carcinoma/lymphocytic leukemia); assay: Cell proliferation (MTS) assay, DU145; type: cell-based; conditions: Homo sapiens, DU-145, 72 h, Table 1; three days treatment
Experimental: as §1, §2

Human TOR = molecular target: T1, Human TOR (Homo sapiens, UniProt P42345); assay: Human TOR (mTOR) kinase assay, DELFIA format; type: biochemical; conditions: Table 1
T1 construct: FLAG
Experimental: The PI3K/AKT/TOR pathway is critical for cell proliferation, growth, survival, and angiogensis. Accordingly, compounds of the present invention may also be useful to inhibit TOR activity. Similar in vivo and in vitro assays to those described above with reference to PI3K can be used to determine the minimum concentration of compound sufficient to inhibit TOR. A human TOR assay and a Rat1-IGF1 assay as described in Examples 67 and 68, respectively was performed with some embodiments of the invention. The results of these assays are shown below in Tables 1 and 2.
Human TOR assays (See Toral-Barza, et al. Biochem Biophys. Res. Commun. 2005 Jun. 24; 332(1):304-10) with purified enzyme are performed in 96-well plates by DELFIA format as follows. Enzymes are first diluted in kinase assay buffer (10 mM Hepes (pH 7.4), 50 mM NaCl, 50 mM b-glycerophosphate, 10 mM MnCl2, 0.5 mM DTT, 0.25 mM microcystin LR, and […] BSA). To each well, 12 mL of the diluted enzyme is mixed briefly with 0.5 mL test inhibitor or control vehicle dimethylsulfoxide (DMSO). The kinase reaction is initiated by adding 12.5 mL kinase assay buffer containing ATP and His6-S6K to give a final reaction volume of 25 mL containing 800 ng/mL FLAG-TOR, […] ATP and […] His6-S6K. The reaction plate is incubated for 2 hours (linear at 1-6 hours) at room temperature with gentle shaking and then terminated by adding 25 mL Stop buffer (20 mM Hepes (pH 7.4), 20 mM EDTA, 20 mM EGTA). The DELFIA detection of the phosphorylated (Thr-389) His6-S6K is performed at room temperature using a monoclonal anti-P(T389)-p70S6K antibody (1A5, Cell Signaling) labeled with Europium-N1-ITC (Eu) (10.4 Eu per antibody, PerkinElmer). The DELFIA Assay buffer and Enhancement solution can be purchased from PerkinElmer. 45 mL of the terminated kinase reaction mixture is transferred to a MaxiSorp plate (Nunc) containing 55 mL PBS. The His6-S6K is allowed to attach for 2 hours after which the wells are aspirated and washed once with PBS. 100 mL of DELFIA Assay buffer with 40 ng/mL Eu-P(T389)-S6K antibody is added. The antibody binding is continued for 1 hour with gentle agitation. The wells are then aspirated and washed 4 times with PBS containing 0.05% Tween-20 (PBST). […] of DELFIA Enhancement solution is added to each well and the plates are read in a PerkinElmer Victor model plate reader. Data obtained is used to calculate enzymatic activity and enzyme inhibition by potential inhibitors.

PI3K = test system: T2, PI3K; assay: Fluorescence polarization assay for PI3K; type: biochemical; conditions: Table 1
T2 construct: PI3K FP IC50
Experimental: This assay is used to determine the IC50 of compounds of the present invention as it identifies inhibitors of PI3 kinase by measuring inhibition.
The assay is run by placing 5 μL of diluted enzyme per well, then 5 μL of diluted compound (or 9.5 μL enzyme then 0.5 μL compound in DMSO) is added and mixed. Then, 10 μL substrate is added to start the reaction. The samples are incubated 30-60 minutes, then the reaction is stopped by adding 20 μL stop/detector mix.
PI3K is diluted with reaction buffer (e.g., 5 μL or 7.5 μL PI3K into 620 μL reaction buffer), and 5 μL of diluted enzyme is used per well. 5 μL reaction buffer or drug diluted in buffer (e.g., 4 μL/100 so final DMSO is 1% in reaction) is added to each. The samples are mixed by pipetting up and down. Alternatively, the enzyme can be diluted to 1215 μL. In this case 9.8 μL is added per well and 0.2 μL compound is added in DMSO.
To prepare 1 mL of substrate solution, 955 μL reaction buffer, 40 μL PIP2, and 2.5 μL ATP are mixed. 10 μL of substrate is added to each well to start the reaction.
Stop/detector mix is prepared by mixing 4 μL Red detector and 1.6 μL or 2.0 μL GST-GRP with 1 mL Stop buffer, which results in 10 nM probe and 70 nM GST-GRP). 20 μL of the stop/detector mix is added to each well to stop the reaction. The plates are read after 30-90 minutes keeping the red probe solutions dark.
For the zero time point, stop/detector mix is added to the enzyme just before adding substrate. For an extra control, stop/detector mix is added to buffer (no enzyme) and substrate or to just buffer (no substrate).
The recommended reaction has 0.06 μL per 20 μL (0.015 μg/20 μL) or 0.01125 μg/15 μL or 0.75 μg/mL.
Plates are read on machines with filters for Tamra. The units are mP with no enzyme controls reading app 190-220 mP units. Fully active enzyme reduces fluorescence polarization down to 70-100 mP after 30 minutes. An active cpd raises the mP values halfway to control or to 120-150 mP units.

Row | Compound | IC50 [1] [µg/mL] | IC50 [2] [µg/mL] | IC50 [3] [µg/mL] | IC50 [4] [µg/mL] | IC50 (Human TOR) [nM] | PI3K FP IC50 (PI3K) [µg/mL] | TOR IC50 (Human TOR) [µg/mL]
1 | CCN(/C=C1/C(=O)O[C@H](COC)[C@@]2(C)C1=C(O)C(=O)C1=C2[C@H](OC(C)=O)C[C@]2(C)[C@@H](O)CC[C@@H]12)CC [Compound 1, (1E,4S,4aR,5R,6aS,7S,9aR)-1-[(diethylamino)methylene]-7,11-dihydroxy-4-(methoxymethyl)-4a,6a-dimethyl-2,10-dioxo-1,2,4,4a,5,6,6a,7,8,9,9a,10-dodecahydroindeno[4,5-h]isochromen-5-yl acetate] | 1 | 6 | 0.075 | 2 | – | – | –
2 | COC[C@H]1OC(=O)/C(=C/N2CCCC2)C2=C(O)C(=O)C3=C([C@H](OC(C)=O)C[C@]4(C)[C@@H](O)CC[C@@H]34)[C@]21C [Compound 2, (1E,4S,4aR,5R,6aS,7S,9aR)-7,11-dihydroxy-4-(methoxymethyl)-4a,6a-dimethyl-2,10-dioxo-1-(Pyrrolidin-1-ylmethylene)-1,2,4,4a,5,6,6a,7,8,9,9a,10-dodecahydroindeno[4,5-h]isochromen-5-yl acetate] | 1 | 6 | 0.1 | 1.4 | > 19900 | – | –
3 | CCN(/C=C1/C(=O)O[C@H](COC)[C@@]2(C)C1=C(O)C(=O)C1=C2[C@H](OC(C)=O)C[C@@]2(C)C1CC[C@@H]2OC=O)CC (stereo partly drawn) [Compound 18, (1E,4S,4aR,5R,6aS,7S)-1-[(diethylamino)methylene]-7-(formyloxy)-11-hydroxy-4-(methoxymethyl)-4a,6a-dimethyl-2,10-dioxo-1,2,4,4a,5,6,6a,7,8,9,9a,10-dodecahydroindeno[4,5-h]isochromen-5-yl acetate] | 0.4 | 6 | 0.11 | 1.5 | 4700 | – | –
4 | CCN(C=C1C(=O)OC(COC)C2(C)C1=C(O)C(=O)C1=C2C(OC(C)=O)CC2(C)C(O)CCC12)CCN(CC)CC (stereo not shown) [Compound 42, Acetic acid 4-{[(2-diethylamino-ethyl)-ethyl-amino]-methylene}-6,17-dihydroxy-1-methoxymethyl-10,13-dimethyl-3,7-dioxo-1,3,4,7,10,11,12,13,14,15,16,17-dodecahydro-2-oxa-cyclopenta[a]phenanthren-11-yl ester] | 4.1 (≈ 7.13 µM) | – | 0.75 (≈ 1.3 µM) | – | 1480 | 0.014 | –
5 | (1E,4S,4aR,5R,6aS,7S,9aR)-1-({4-[2-(2,5-dioxo-2,5-dihydro-1H-pyrrol-1-yl)ethyl]piperazin-1-yl}methylene)-7,11-dihydroxy-4-(methoxymethyl)-4a,6a-dimethyl-2,10-dioxo-1,2,4,4a,5,6,6a,7,8,9,9a,10-dodecahydroindeno[4,5-h]isochromen-5-yl acetate [Compound 65] | – | – | – | – | – | 1.55 | 0.58

Further compounds by falling IC50 (Human TOR), results first:

Row | IC50 [1] [µg/mL] | IC50 [2] [µg/mL] | IC50 [3] [µg/mL] | IC50 [4] [µg/mL] | IC50 (Human TOR) [nM] | PI3K FP IC50 (PI3K) [µg/mL] | Compound | TOR IC50 (Human TOR) [µg/mL]
6 | 3.4 (≈ 5.59 µM) | – | 0.42 (≈ 0.69 µM) | – | 4600 | 0.027 | COCC1OC(=O)C(=CN(CCN(C)C)Cc2ccccc2)C2=C(O)C(=O)C3=C(C(OC(C)=O)CC4(C)C(O)CCC34)C21C (stereo not shown) [Compound 43, Acetic acid 4-{[benzyl-(2-dimethylamino-ethyl)-amino]-methylene}-6,17-dihydroxy-1-methoxymethyl-10,13-dimethyl-3,7-dioxo-1,3,4,7,10,11,12,13,14,15,16,17-dodecahydro-2-oxa-cyclopenta[a]phenanthren-11-yl ester] | –
7 | 3.85 (≈ 7.39 µM) | – | 0.25 (≈ 0.48 µM) | – | 2500 | 0.043 | CCCCSC=C1C(=O)OC(COC)C2(C)C1=C(O)C(=O)C1=C2C(OC(C)=O)CC2(C)C(O)CCC12 (stereo not shown) [Compound 52, Acetic acid 4-butylsulfanylmethylene-6,17-dihydroxy-1-methoxymethyl-10,13-dimethyl-3,7-dioxo-1,3,4,7,10,11,12,13,14,15,16,17-dodecahydro-2-oxa-cyclopenta[a]phenanthren-11-yl ester] | –
8 | 4.25 (≈ 7.77 µM) | – | 0.8 (≈ 1.46 µM) | – | 1520 | 0.044 | CCC(=O)OC1CC2(C)C(O)CCC2C2=C1C1(C)C(=C(O)C2=O)C(=CN(C)CCN(C)C)C(=O)OC1COC (stereo not shown) [Compound 49, Propionic acid 4-{[(2-dimethylamino-ethyl)-methyl-amino]-methylene}-6,17-dihydroxy-1-methoxymethyl-10,13-dimethyl-3,7-dioxo-1,3,4,7,10,11,12,13,14,15,16,17-dodecahydro-2-oxa-cyclopenta[a]phenanthren-11-yl ester] | –
9 | 5 (≈ 8.46 µM) | – | 1.45 (≈ 2.45 µM) | – | 728 | 0.028 | COCC1OC(=O)C(=CN(CCC#N)Cc2ccccc2)C2=C(O)C(=O)C3=C(C(OC(C)=O)CC4(C)C(O)CCC34)C21C (stereo not shown) [Compound 41, Acetic acid 4-{[benzyl-(2-cyano-ethyl)-amino]-methylene}-6,17-dihydroxy-1-methoxymethyl-10,13-dimethyl-3,7-dioxo-1,3,4,7,10,11,12,13,14,15,16,17-dodecahydro-2-oxa-cyclopenta[a]phenanthren-11-yl ester] | –
10 | – | – | – | – | 539 | – | CCCC(=O)OC1CC2(C)C(O)CCC2C2=C1C1(C)C(=C(O)C2=O)C(=CN(C)CC(C)N(C)C)C(=O)OC1COC (stereo not shown) [Compound 63, Butanoic acid 4-{[(2-dimethylamino-propyl)-methyl-amino]-methylene}-6,17-dihydroxy-1-methoxymethyl-10,13-dimethyl-3,7-dioxo-1,3,4,7,10,11,12,13,14,15,16,17-dodecahydro-2-oxa-cyclopenta[a]phenanthren-11-yl ester] | –
